Measured values published in patent US12662491B2 (Redona Therapeutics, Inc., priority 2020, dated 2026).

The compounds below were run against T1, Zcchc11 enzyme (Homo sapiens, UniProt Q5TAX3) (assay: TUTase assay (Zcchc11 assay, Lin28a-dependent polyuridylation of pre-let-7)). Conditions: Lin28a-dependent Zcchc11 (Z11) TUTase assay; read-out: Potency Lin28a-dep Z11 IC50.
T1 construct: made in house; host or cells: HEK293 cells (Zcchc11); E. coli Rosetta II (LIN28A)
T1 sequence (Q5TAX3 212-1420): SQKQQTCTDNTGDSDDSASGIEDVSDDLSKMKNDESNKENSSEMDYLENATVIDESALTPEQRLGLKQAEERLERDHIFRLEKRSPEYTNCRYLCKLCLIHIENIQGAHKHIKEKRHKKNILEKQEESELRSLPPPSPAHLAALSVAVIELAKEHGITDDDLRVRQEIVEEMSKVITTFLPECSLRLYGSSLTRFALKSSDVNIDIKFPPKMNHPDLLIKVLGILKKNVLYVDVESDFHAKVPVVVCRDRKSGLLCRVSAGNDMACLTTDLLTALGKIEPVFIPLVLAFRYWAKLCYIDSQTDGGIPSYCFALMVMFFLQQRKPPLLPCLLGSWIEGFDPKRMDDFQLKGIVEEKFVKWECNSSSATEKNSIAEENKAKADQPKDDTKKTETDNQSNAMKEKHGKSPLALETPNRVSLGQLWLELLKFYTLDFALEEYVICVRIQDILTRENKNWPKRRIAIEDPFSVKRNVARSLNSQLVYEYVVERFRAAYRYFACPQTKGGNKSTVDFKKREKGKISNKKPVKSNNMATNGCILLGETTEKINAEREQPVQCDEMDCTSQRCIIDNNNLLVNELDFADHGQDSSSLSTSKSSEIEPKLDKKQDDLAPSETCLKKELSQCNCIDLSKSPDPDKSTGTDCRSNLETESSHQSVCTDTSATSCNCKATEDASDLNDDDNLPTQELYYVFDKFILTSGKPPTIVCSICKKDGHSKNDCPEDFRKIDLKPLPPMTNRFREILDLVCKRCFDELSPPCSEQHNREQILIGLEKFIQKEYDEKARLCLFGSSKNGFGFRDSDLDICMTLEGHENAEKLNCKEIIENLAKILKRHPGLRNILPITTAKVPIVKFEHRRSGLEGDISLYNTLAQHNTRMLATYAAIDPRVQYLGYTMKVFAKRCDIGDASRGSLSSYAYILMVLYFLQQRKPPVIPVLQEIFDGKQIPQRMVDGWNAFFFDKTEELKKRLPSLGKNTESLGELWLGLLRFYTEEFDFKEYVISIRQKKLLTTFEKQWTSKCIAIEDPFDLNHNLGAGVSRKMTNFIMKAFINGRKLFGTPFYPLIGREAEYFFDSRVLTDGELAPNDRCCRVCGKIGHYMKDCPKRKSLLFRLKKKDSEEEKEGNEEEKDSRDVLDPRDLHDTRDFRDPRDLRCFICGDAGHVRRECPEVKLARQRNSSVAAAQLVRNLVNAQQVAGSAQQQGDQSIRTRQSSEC
Type: biochemical
Summary of the method: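 Human Zcchc11 residues 212-1420 (HEK293-expressed, MBP tag cleaved, C-terminal FLAG) at 0.2 nM, with 10 nM full-length human LIN28A and 2 nM 5′-fluorescein pre-let-7, preincubated with compound 30 min at room temperature. Reaction started with 5 uM UTP plus 4 nM 3′-rhodamine A20 quench probe; fluorescein loss read kinetically, IC50 from initial rates.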

SMILES | IC50
Nc1ccc(Cn2cc(C(=O)O)c(=O)c3cc(Cl)c(N4CCC[C@@H]4COc4ncccc4Cl)cc32)cn1 [Example 585, (R)-1-((6-aminopyridin-3-yl)methyl)-6-chloro-7-(2-(((3-chloropyridin-2-yl)oxy)methyl)pyrrolidin-1-yl)-4-oxo-1,4-dihydroquinoline-3-carboxylic acid] | 1000 to 10000 nM
Nc1cc(F)c(-n2cc(C(=O)O)c(=O)c3cc(Cl)c(N4CCC[C@@H]4COc4ncccc4Cl)cc32)cn1 [Example 586, (R)-1-(6-amino-4-fluoropyridin-3-yl)-6-chloro-7-(2-(((3-chloropyridin-2-yl)oxy)methyl)pyrrolidin-1-yl)-4-oxo-1,4-dihydroquinoline-3-carboxylic acid] | ≤ 1000 nM
CN(C)C1CN(c2ccc(-n3cc(C(=O)O)c(=O)c4cc(Cl)c(N5CCC[C@@H]5COc5ncco5)cc43)cn2)C1 [Example 587, (R)-6-chloro-1-(6-(3-(dimethylamino)azetidin-1-yl)pyridin-3-yl)-7-(2-((oxazol-2-yloxy)methyl)pyrrolidin-1-yl)-4-oxo-1,4-dihydroquinoline-3-carboxylic acid] | ≤ 1000 nM
O=C(O)c1cn(C2(c3ccccc3)CC2)c2cc(N3CCC[C@@H]3COc3ncccc3Cl)c(Cl)cc2c1=O [Example 588, (R)-6-chloro-7-(2-(((3-chloropyridin-2-yl)oxy)methyl)pyrrolidin-1-yl)-4-oxo-1-(1-phenylcyclo-propyl)-1,4-dihydroquinoline-3-carboxylic acid] | 1000 to 10000 nM
Nc1cc(Cn2cc(C(=O)O)c(=O)c3cc(Cl)c(N4CCC[C@@H]4COc4ncccc4Cl)cc32)ccn1 [Example 589, (R)-1-((2-aminopyridin-4-yl)methyl)-6-chloro-7-(2-(((3-chloropyridin-2-yl)oxy)methyl)pyrrolidin-1-yl)-4-oxo-1,4-dihydroquinoline-3-carboxylic acid] | 1000 to 10000 nM
O=C(O)c1cn(-c2cnccn2)c2cc(N3C[C@H](F)C[C@@H]3COc3ncccc3Cl)c(Cl)cc2c1=O [Example 590, 6-chloro-7-((2R,4R)-2-(((3-chloropyridin-2-yl)oxy)methyl)-4-fluoropyrrolidin-1-yl)-4-oxo-1-(pyrazin-2-yl)-1,4-dihydroquinoline-3-carboxylic acid] | ≤ 1000 nM
CN(C)C1CN(c2ccc(-n3cc(C(=O)O)c(=O)c4cc(Cl)c(N5CCC[C@@H]5CCOc5ccccn5)cc43)cn2)C1 [Example 591, (R)-6-chloro-1-(6-(3-(dimethylamino)azetidin-1-yl)pyridin-3-yl)-4-oxo-7-(2-(2-(pyridin-2-yloxy)ethyl)pyrrolidin-1-yl)-1,4-dihydroquinoline-3-carboxylic acid] | ≤ 1000 nM
C#Cc1cc2c(=O)c(C(=O)O)cn(-c3ccc(N4CC(N(C)C)C4)nc3)c2cc1N1CCC[C@@H]1COc1ncccc1Cl [Example 592, (R)-7-(2-(((3-chloropyridin-2-yl)oxy)methyl)pyrrolidin-1-yl)-1-(6-(3-(dimethylamino)azetidin-1-yl)pyridin-3-yl)-6-ethynyl-4-oxo-1,4-dihydroquinoline-3-carboxylic acid] | ≤ 1000 nM
CN(C)C1CN(c2ccc(-n3cc(C(=O)O)c(=O)c4cc(Cl)c(N5CC(c6ccccc6)C[C@@H]5COc5ncccc5Cl)cc43)cn2)C1 (stereo partly drawn) [Example 593, 6-chloro-7-((2R)-2-(((3-chloropyridin-2-yl)oxy)methyl)-4-phenyl-pyrrolidin-1-yl)-1-(6-(3-(dimethylamino)azetidin-1-yl)pyridin-3-yl)-4-oxo-1,4-dihydroquinoline-3-carboxylic acid] | ≤ 1000 nM
CN(C)C1CN(c2ccc(-n3cc(C(=O)O)c(=O)c4cc(Cl)c(N5CCC[C@@H]5COC5CCOC5)cc43)cn2)C1 (stereo partly drawn) [Example 594, 6-chloro-1-(6-(3-(dimethylamino)azetidin-1-yl)pyridin-3-yl)-4-oxo-7-((2R)-2-(((tetrahydro-furan-3-yl)oxy)methyl)pyrrolidin-1-yl)-1,4-dihydroquinoline-3-carboxylic acid] | 1000 to 10000 nM
CN(C)C1CN(c2ccc(-n3cc(C(=O)O)c(=O)c4cc(Cl)c(N5CCC[C@@H]5COC5CCOCC5)cc43)cn2)C1 [Example 595, (R)-6-chloro-1-(6-(3-(dimethylamino)azetidin-1-yl)pyridin-3-yl)-4-oxo-7-(2-(((tetrahydro-2H-pyran-4-yl)oxy)methyl)pyrrolidin-1-yl)-1,4-dihydroquinoline-3-carboxylic acid] | 1000 to 10000 nM
CN(C)C1CN(c2ccc(-n3cc(C(=O)O)c(=O)c4cc(Cl)c(N5CCC[C@@H]5CSc5ncccc5Cl)cc43)cn2)C1 [Example 596, (R)-6-chloro-7-(2-(((3-chloropyridin-2-yl)thio)methyl)pyrrolidin-1-yl)-1-(6-(3-(dimethylamino)azetidin-1-yl)pyridin-3-yl)-4-oxo-1,4-dihydroquinoline-3-carboxylic acid] | ≤ 1000 nM
CN(C)C1CN(c2ccc(-n3cc(C(=O)O)c(=O)c4cc(Cl)c(N5Cc6cccnc6[C@@H]5COc5ncccc5Cl)cc43)cn2)C1 [Example 597, (R)-6-chloro-7-(7-(((3-chloropyridin-2-yl)oxy)methyl)-5,7-dihydro-6H-pyrrolo[3,4-b]pyridin-6-yl)-1-(6-(3-(dimethylamino)azetidin-1-yl)pyridin-3-yl)-4-oxo-1,4-dihydroquinoline-3-carboxylic acid] | ≤ 1000 nM
CN(C)C1CN(c2ccc(-n3cc(C(=O)O)c(=O)c4cc(Cl)c(N5C[C@@H](O)C[C@@H]5COc5ncccc5Cl)cc43)cn2)C1 [Example 598, 6-chloro-7-((2R,4S)-2-(((3-chloropyridin-2-yl)oxy)methyl)-4-hydroxypyrrolidin-1-yl)-1-(6-(3-(dimethylamino)azetidin-1-yl)pyridin-3-yl)-4-oxo-1,4-dihydroquinoline-3-carboxylic acid] | ≤ 1000 nM
CN(C)C1CN(c2ccc(-n3cc(C(=O)O)c(=O)c4cc(Cl)c(N5CC(c6cccnc6)C[C@@H]5COc5ncccc5Cl)cc43)cn2)C1 (stereo partly drawn) [Example 599, 6-chloro-7-((2R)-2-(((3-chloropyridin-2-yl)oxy)methyl)-4-(pyridin-3-yl)pyrrolidin-1-yl)-1-(6-(3-(dimethylamino)azetidin-1-yl)pyridin-3-yl)-4-oxo-1,4-dihydroquinoline-3-carboxylic acid] | ≤ 1000 nM
CN(C)C1CN(c2ccc(-n3cc(C(=O)O)c(=O)c4cc(F)c(N5CCC[C@@H]5COc5cc(O)ccn5)c(F)c43)cn2)C1 [Example 600, (R)-1-(6-(3-(dimethylamino)azetidin-1-yl)pyridin-3-yl)-6,8-difluoro-7-(2-(((4-hydroxypyridin-2-yl)oxy)methyl)pyrrolidin-1-yl)-4-oxo-1,4-dihydroquinoline-3-carboxylic acid] | ≤ 1000 nM
CN(CCN1CCC1)c1ccc(-n2cc(C(=O)O)c(=O)c3cc(Cl)c(N4CCC[C@@H]4COc4ncccc4Cl)cc32)cn1 [Example 601, (R)-1-(6-((2-(azetidin-1-yl)ethyl)(methyl)amino)pyridin-3-yl)-6-chloro-7-(2-(((3-chloropyridin-2-yl)oxy)methyl)pyrrolidin-1-yl)-4-oxo-1,4-dihydroquinoline-3-carboxylic acid] | ≤ 1000 nM
CN(C)C1CN(c2ccc(-n3cc(C(=O)O)c(=O)c4cc(Cl)c(N5C[C@H](O)C[C@@H]5COc5ncccc5Cl)cc43)cn2)C1 [Example 602, 6-chloro-7-((2R,4R)-2-(((3-chloroypridin-2-yl)oxy)methyl)-4-hydroxypyrrolidin-1-yl)-1-(6-(3-(dimethylamino)azetidin-1-yl)pyridin-3-yl)-4-oxo-1,4-dihydroquinoline-3-carboxylic acid] | ≤ 1000 nM
COc1ccc(C2C[C@H](COc3ncccc3Cl)N(c3cc4c(cc3Cl)c(=O)c(C(=O)O)cn4-c3ccc(N4CC(N(C)C)C4)nc3)C2)cn1 (stereo partly drawn) [Example 603, 6-chloro-7-((2R)-2-(((3-chloropyridin-2-yl)oxy)methyl)-4-(6-methoxypyridin-3-yl)pyrrolidin-1-yl)-1-(6-(3-(dimethylamino)azetidin-1-yl)pyridin-3-yl)-4-oxo-1,4-dihydroquinoline-3-carboxylic acid] | ≤ 1000 nM
